target: T1, cyclic GMP specific phosphodiesterase (PDE 5) (Homo sapiens, UniProt O76074); test: PDE 5 inhibition, enzyme isolated from human platelet lysates, [3H]-cyclic GMP substrate; type: biochemical; details: enzyme from human platelet lysates (Mono-Q); 0.25 mM [3H]-cyclic GMP as substrate; read-out: IC50 PDE5
T1 construct: was isolated from human platelet lysates by ion exchange chromatography using a Mono-Q column; from tissue; host or cells: human platelets (lysate, Mono-Q ion exchange fraction)
Protocol: The cyclic GMP specific phosphodiesterase (PEE 5) was isolated from human platelet lysates by ion exchange chromatography using a Mono-Q column. The enzyme activity was determined using 0.25 mM [3H]-cyclic GMP as substrate. The purification of the enzyme and the assessment of the PDE 5 inhibitory activity of our compounds were performed essentially as described by Gristwood et al., Br. J. Pharmacol. 1992, 105, 985–991.

IC50 [nM]	Compound
0.099	CCCn1c(=O)n2cnnc2c2[nH]c(-c3cc(S(=O)(=O)N4CCCN(C)CC4)ccc3OCC)c(Cl)c21 [Example 11, 7-Chloro-8-[2-ethoxy-5-(4-methyl-[1,4]diazepane-1-sulfonyl)phenyl]-6-propyl-6,9-dihydro-5H-pyrrolo[2,3-e][1,2,4]triazolo[4,3-c]pyrimidine-5-one]
0.042	CCCn1c(=O)n2cnnc2c2[nH]c(-c3cc(S(=O)(=O)N4CCN(CCOCC)CC4)ccc3OCC)c(Cl)c21 [Example 24, 7-Chloro-8-{2-ethoxy-5-[4-(2-ethoxyethyl)piperazine-1-sulfonyl]phenyl}-6-propyl-6,9-dihydro-5H-pyrrolo[2,3-e][1,2,4]triazolo[4,3-c]pyrimidine-5-one]
0.21	C=CCN1CCN(S(=O)(=O)c2ccc(OCCC)c(-c3[nH]c4c(c3Cl)n(CCC)c(=O)n3cnnc43)c2)CC1 [Example 45, 8-[5-(4-Allylpiperazine-1-sulfonyl)-2-propoxyphenyl]-7-chloro-6-propyl-6,9-dihydro-5H-pyrrolo[2,3-e][1,2,4]triazolo[4,3-c]pyrimidine-5-one]
0.15	CCCOc1ccc(S(=O)(=O)NCCO)cc1-c1[nH]c2c(c1Cl)n(CCC)c(=O)n1cnnc21 [Example 50, 3-(7-Chloro-5-oxo-6-propyl-6,9-dihydro-5H-pyrrolo[2,3-e][1,2,4]triazolo[4,3-c]pyrimidin-8-yl)-N-(2-hydroxyethyl)-4-propoxybenzenesulfonamide]
0.25	CCCOc1ccc(S(=O)(=O)N2CCNCC2)cc1-c1[nH]c2c(c1Br)n(CCC)c(=O)n1cnnc21 [Example 74, 7-Bromo-8-[5-(piperazine-1-sulfonyl)-2-propoxyphenyl]-6-propyl-6,9-dihydro-5H-pyrrolo[2,3-e][1,2,4]triazolo[4,3-c]pyrimidine-5-one]

More lines, now with the values behind:

Compound	IC50 [nM]
CCCOc1ccc(S(=O)(=O)N2CCN(CCCO)CC2)cc1-c1[nH]c2c(c1Cl)n(CCC)c(=O)n1cnnc21 [Example 34, 7-Chloro-8-{5-[4-(3-hydroxypropyl)piperazine-1-sulfonyl)-2-propoxyphenyl]-6-propyl-6,9-dihydro-5H-pyrrolo[2,3-e][1,2,4]triazolo[4,3-c]pyrimidine-5-one]	0.22
CCCOc1ccc(S(=O)(=O)NC2CC(C)(C)NC(C)(C)C2)cc1-c1[nH]c2c(c1Cl)n(CCC)c(=O)n1cnnc21 [Example 41, 3-(7-Chloro-5-oxo-6-propyl-6,9-dihydro-5H-pyrrolo[2,3-e][1,2,4]triazolo[4,3-c]pyrimidin-8-yl)-4-propoxy-N-(2,2,6,6-tetramethylpiperidin-4-yl)benzenesulfonamide]	0.17
CCCOc1ccc(S(=O)(=O)N2CCN(C)CC2)cc1-c1[nH]c2c(c1Br)n(CCC)c(=O)n1cnnc21 [Example 58, 7-Bromo-8-[5-(4-methylpiperazine-1-sulfonyl)-2-propoxyphenyl]-6-propyl-6,9-dihydro-5H-pyrrolo[2,3-e][1,2,4]triazolo[4,3-c]pyrimidine-5-one]	0.3
CCCOc1ccc(S(=O)(=O)N2CCCN(CCO)CC2)cc1-c1[nH]c2c(c1Br)n(CCC)c(=O)n1cnnc21 [Example 71, 7-Bromo-8-(5-[4-(2-Hydroxyethyl)-[1,4]diazepane-1-sulfonyl]-2-propoxyphenyl}-6-propyl-6,9-dihydro-5H-pyrrolo[2,3-e][1,2,4]triazolo[4,3-c]pyrimidine-5-one]	0.12
CCCOc1ccc(S(=O)(=O)N2CCN(CCO)CC2)cc1-c1[nH]c2c(c1Br)n(CCC)c(=O)n1cnnc21 [Example 73, 7-Bromo-8-{5-[4-(2-hydroxyethyl)piperazine-1-sulfonyl]-2-propoxyphenyl}-6-propyl-6,9-dihydro-5H-pyrrolo[2,3-e][1,2,4]triazolo[4,3-c]pyrimidine-5-one]	0.33
CCCn1c(=O)n2cnnc2c2[nH]c(-c3cc(S(=O)(=O)N4CCN5CCC[C@H]5C4)ccc3OCC)c(Cl)c21 [Example 75, 7-Chloro-8-[2-ethoxy-5-((S)-hexahydropyrrolo[1,2-a]pyrazine-2-sulfonyl)phenyl]-6-propyl-6,9-dihydro-5H-pyrrolo[2,3-e][1,2,4]triazolo[4,3-c]pyrimidine-5-one]	0.19
CCCn1c(=O)n2cnnc2c2[nH]c(-c3cc(S(=O)(=O)N4C[C@@H]5C[C@H]4CN5C)ccc3OCC)c(Cl)c21 [Example 79, 7-Chloro-8-[2-ethoxy-5-((1S, 4S)-5-methyl-2,5-diazabicyclo[2.2.1]heptane-2-sulfonyl)phenyl]-6-propyl-6,9-dihydro-5H-pyrrolo[2,3-e][1,2,4]triazolo[4,3-c]pyrimidine-5-one]	0.19

From patent US7060824B2, “Pyrrolotriazolopyrimidinone derivatives” (Almirall Prodesfarma, S.A., priority 2000, dated 2006)
